Measurements as given in PubChem BioAssay AID256 (DTP/NCI, 2004).
Values joined by “and” are separate entries in the source; they are usually repeats but may differ in a detail not shown here. Equal values may be shown once. Toxic doses and inconclusive results are not listed. Rule for the calls: active = survival T/C of 150% or more; inactive = T/C below 125% in these data.

Test system: CD2F1 mice, L1210 leukemia ip, survival T/C
Assay: NCI In Vivo Anticancer Drug Screen. Data for tumor model L1210 Leukemia (intraperitoneal) in CD2F1 (CDF1) mice
Conditions: higher = longer survival
Outline: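 Mice carrying a transplanted tumor received test compound or vehicle alone. The value is the measurement in the treated group divided by that in the vehicle-treated control group.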

[1] = endpoint: mean survival time, dose: 75.0 mg/kg/injection, schedule: Q01DX001 (ip), vehicle: other
[2] = endpoint: mean survival time, dose: 100.0 mg/kg/injection, schedule: Q04DX003 (ip), vehicle: saline with Tween-80
[3] = endpoint: mean survival time, dose: 25.0 mg/kg/injection, schedule: Q04DX003 (ip), vehicle: saline
[4] = endpoint: mean survival time, dose: 50.0 mg/kg/injection, schedule: Q04DX003 (ip), vehicle: saline
[5] = endpoint: mean survival time, dose: 100.0 mg/kg/injection, schedule: Q01DX001 (ip), vehicle: saline
[6] = endpoint: mean survival time, dose: 100.0 mg/kg/injection, schedule: Q04DX003 (ip), vehicle: saline
[7] = endpoint: mean survival time, dose: 200.0 mg/kg/injection, schedule: Q01DX001 (ip), vehicle: saline
[8] = endpoint: mean survival time, dose: 400.0 mg/kg/injection, schedule: Q01DX001 (ip), vehicle: saline
[9] = endpoint: mean survival time, dose: 100.0 mg/kg/injection, schedule: Q01DX009 (ip), vehicle: saline
[10] = endpoint: mean survival time, dose: 200.0 mg/kg/injection, schedule: Q01DX009 (ip), vehicle: saline
[11] = endpoint: mean survival time, dose: 100.0 mg/kg/injection, schedule: Q04DX002 (ip), vehicle: saline with Tween-80
[12] = endpoint: mean survival time, dose: 200.0 mg/kg/injection, schedule: Q04DX002 (ip), vehicle: saline with Tween-80
[13] = endpoint: mean survival time, dose: 100.0 mg/kg/injection, schedule: Q01DX009 (ip), vehicle: saline with Tween-80

Measured: T/C

O=C1C2CC3C1C1(Cl)C(Cl)C4(Cl)C2C3C1(Cl)C4(Cl)Cl (stereo unspecified)
inactive: endpoint: mean survival time, dose: 9.5 mg/kg/injection, schedule: Q01DX001 (ip), vehicle: other 98 % of control | endpoint: mean survival time, dose: 19.0 mg/kg/injection, schedule: Q01DX001 (ip), vehicle: other 104 % of control | endpoint: mean survival time, dose: 38.0 mg/kg/injection, schedule: Q01DX001 (ip), vehicle: other 103 % of control | [1] 104 % of control

CCCCNC(C)(C)C(SSC(c1cccs1)C(C)(C)NCCCC)c1cccs1 (stereo unspecified)
inactive: endpoint: mean survival time, dose: 25.0 mg/kg/injection, schedule: Q04DX003 (ip), vehicle: saline with Tween-80 97 % of control | endpoint: mean survival time, dose: 50.0 mg/kg/injection, schedule: Q04DX003 (ip), vehicle: saline with Tween-80 101 % of control | [2] 98 % of control

NC(=O)CCC(=O)NCCN1CC1
inactive: [3] 97 % of control | [4] 97 % of control | [5] 104 % of control | [6] 96 % of control | [7] 98 % of control | [8] 115 % of control

CCCCC/C(C)=N\O
inactive: endpoint: mean survival time, dose: 50.0 mg/kg/injection, schedule: Q01DX009 (ip), vehicle: saline 98 % of control | [5] 104 % of control | [9] 98 % of control | [2] 103 % of control | [7] 95 % of control | [10] 101 % of control | endpoint: mean survival time, dose: 200.0 mg/kg/injection, schedule: Q04DX003 (ip), vehicle: saline with Tween-80 97 % of control | [8] 98 % of control

Cc1[nH]nc2[nH]cnc(=S)c12
inactive: endpoint: mean survival time, dose: 12.5 mg/kg/injection, schedule: Q01DX005 (ip), vehicle: saline with Tween-80 90 % of control | endpoint: mean survival time, dose: 25.0 mg/kg/injection, schedule: Q01DX005 (ip), vehicle: saline with Tween-80 88 % of control | endpoint: mean survival time, dose: 50.0 mg/kg/injection, schedule: Q01DX005 (ip), vehicle: saline with Tween-80 87 % of control | endpoint: mean survival time, dose: 100.0 mg/kg/injection, schedule: Q01DX005 (ip), vehicle: saline with Tween-80 94 % of control | endpoint: mean survival time, dose: 200.0 mg/kg/injection, schedule: Q01DX005 (ip), vehicle: saline with Tween-80 96 % of control

O=c1ccn(C2OC(CO)C(O)C2C[N+](=O)[O-])c(=O)[nH]1 (stereo unspecified)
inactive: endpoint: mean survival time, dose: 12.5 mg/kg/injection, schedule: Q01DX005 (ip), vehicle: water 96 % of control | endpoint: mean survival time, dose: 25.0 mg/kg/injection, schedule: Q01DX005 (ip), vehicle: water 97 % of control | endpoint: mean survival time, dose: 50.0 mg/kg/injection, schedule: Q01DX005 (ip), vehicle: water 94 % of control | endpoint: mean survival time, dose: 100.0 mg/kg/injection, schedule: Q01DX005 (ip), vehicle: water 91 % of control | endpoint: mean survival time, dose: 200.0 mg/kg/injection, schedule: Q01DX005 (ip), vehicle: water 88 % of control

C1CCC(C2CCCC[N-]2)[N-]C1.CCC(C)C([NH-])C(=O)O.[Cl][Pt] (stereo unspecified)
inactive: endpoint: median survival time, dose: 10.0 mg/kg/injection, schedule: Q04DX003 (ip), vehicle: saline 101 % of control | endpoint: median survival time, dose: 20.0 mg/kg/injection, schedule: Q04DX003 (ip), vehicle: saline 98 % of control | endpoint: median survival time, dose: 40.0 mg/kg/injection, schedule: Q04DX003 (ip), vehicle: saline 101 % of control | endpoint: median survival time, dose: 80.0 mg/kg/injection, schedule: Q04DX003 (ip), vehicle: saline 98 % of control

[Cl][Pt+2][Cl].[NH-]c1ccc(F)cc1F.[NH-]c1ccc(F)cc1F
inactive: endpoint: mean survival time, dose: 12.5 mg/kg/injection, schedule: Q04DX003 (ip), vehicle: distilled water + Tween-80 114 % of control and 104 % of control and 110 % of control | endpoint: mean survival time, dose: 25.0 mg/kg/injection, schedule: Q04DX003 (ip), vehicle: distilled water + Tween-80 115 % of control and 117 % of control and 96 % of control | endpoint: mean survival time, dose: 50.0 mg/kg/injection, schedule: Q04DX003 (ip), vehicle: distilled water + Tween-80 116 % of control and 105 % of control | endpoint: mean survival time, dose: 100.0 mg/kg/injection, schedule: Q04DX003 (ip), vehicle: distilled water + Tween-80 122 % of control and 88 % of control and 94 % of control

Nc1cccc(OCc2nc(N)nc(N)c2-c2ccc(Cl)cc2)c1
inactive: endpoint: mean survival time, dose: 37.5 mg/kg/injection, schedule: Q01DX001 (ip), vehicle: saline 96 % of control | endpoint: mean survival time, dose: 75.0 mg/kg/injection, schedule: Q01DX001 (ip), vehicle: saline 100 % of control | endpoint: mean survival time, dose: 150.0 mg/kg/injection, schedule: Q01DX001 (ip), vehicle: saline 91 % of control

Nc1nc(=S)c2n[nH]nc2[nH]1
inactive: endpoint: mean survival time, dose: 25.0 mg/kg/injection, schedule: Q01DX001 (ip), vehicle: saline with Tween-80 102 % of control | endpoint: mean survival time, dose: 50.0 mg/kg/injection, schedule: Q01DX001 (ip), vehicle: saline with Tween-80 104 % of control

C[N+]1=C2CCCC2=C(N)CC1
inactive: endpoint: mean survival time, dose: 6.25 mg/kg/injection, schedule: Q01DX009 (ip), vehicle: saline 105 % of control | endpoint: mean survival time, dose: 12.5 mg/kg/injection, schedule: Q01DX009 (ip), vehicle: saline 100 % of control | endpoint: mean survival time, dose: 25.0 mg/kg/injection, schedule: Q01DX009 (ip), vehicle: saline 98 % of control

CC(=O)NNC(=O)CC(O)(c1ccccc1)c1ccccc1
inactive: [11] 113 % of control | [12] 95 % of control

C/C=C/C=C(\CC)C(=O)OCC
inactive: endpoint: mean survival time, dose: 100.0 mg/kg/injection, schedule: Q01DX001 (ip), vehicle: saline with Tween-80 97 % of control | endpoint: mean survival time, dose: 200.0 mg/kg/injection, schedule: Q01DX001 (ip), vehicle: saline with Tween-80 97 % of control | endpoint: mean survival time, dose: 400.0 mg/kg/injection, schedule: Q01DX001 (ip), vehicle: saline with Tween-80 86 % of control

COc1ccc2c(c1)CCC1C2=CC2=NNC(=O)C2C1c1ccccc1 (stereo unspecified)
inactive: [11] 92 % of control | [12] 92 % of control | endpoint: mean survival time, dose: 400.0 mg/kg/injection, schedule: Q04DX002 (ip), vehicle: saline with Tween-80 88 % of control

COC(=O)C1=C(C)NC(=O)NC1c1ccccc1 (stereo unspecified)
inactive: [13] 95 % of control | endpoint: mean survival time, dose: 200.0 mg/kg/injection, schedule: Q01DX009 (ip), vehicle: saline with Tween-80 97 % of control | endpoint: mean survival time, dose: 400.0 mg/kg/injection, schedule: Q01DX009 (ip), vehicle: saline with Tween-80 97 % of control

[Cl][Pt+2][Cl].[NH-]c1ccccc1-c1ccccc1[NH-]
inactive: endpoint: mean survival time, dose: 3.13 mg/kg/injection, schedule: Q04DX003 (ip), vehicle: saline 104 % of control | endpoint: mean survival time, dose: 6.25 mg/kg/injection, schedule: Q04DX003 (ip), vehicle: saline 109 % of control | endpoint: mean survival time, dose: 12.5 mg/kg/injection, schedule: Q04DX003 (ip), vehicle: saline 120 % of control | [3] 113 % of control | [4] 109 % of control | [6] 94 % of control

c1ccc(C[n+]2cccc3ccccc32)cc1
inactive: endpoint: mean survival time, dose: 5.0 mg/kg/injection, schedule: Q04DX003 (ip), vehicle: saline with Tween-80 101 % of control | endpoint: mean survival time, dose: 10.0 mg/kg/injection, schedule: Q04DX003 (ip), vehicle: saline with Tween-80 98 % of control | endpoint: mean survival time, dose: 20.0 mg/kg/injection, schedule: Q04DX003 (ip), vehicle: saline with Tween-80 98 % of control

NC(=S)c1cccc(OCCOc2cccc3ccccc23)c1
inactive: endpoint: mean survival time, dose: 25.0 mg/kg/injection, schedule: Q01DX009 (ip), vehicle: saline with Tween-80 92 % of control | endpoint: mean survival time, dose: 50.0 mg/kg/injection, schedule: Q01DX009 (ip), vehicle: saline with Tween-80 95 % of control | [13] 88 % of control

CC1C(=O)CC(C)(C)C=CC1C1C=CC(C)(C)CC(=O)C1C (stereo unspecified)
inactive: [1] 97 % of control | endpoint: mean survival time, dose: 150.0 mg/kg/injection, schedule: Q01DX001 (ip), vehicle: other 97 % of control | endpoint: mean survival time, dose: 300.0 mg/kg/injection, schedule: Q01DX001 (ip), vehicle: other 96 % of control

CC(C)(C)NC(=O)NCCCN1CCOCC1
inactive: [9] 102 % of control | [10] 98 % of control | endpoint: mean survival time, dose: 400.0 mg/kg/injection, schedule: Q01DX009 (ip), vehicle: saline 91 % of control

O=c1[nH]c(SCc2ccccc2)nc(-c2ccc(Cl)cc2)c1CCO
inactive: endpoint: mean survival time, dose: 100.0 mg/kg/injection, schedule: Q01DX009 (ip), vehicle: Klucel (hydroxypropylcellulose) (HPC) 87 % of control | endpoint: mean survival time, dose: 200.0 mg/kg/injection, schedule: Q01DX009 (ip), vehicle: Klucel (hydroxypropylcellulose) (HPC) 89 % of control | endpoint: mean survival time, dose: 400.0 mg/kg/injection, schedule: Q01DX009 (ip), vehicle: Klucel (hydroxypropylcellulose) (HPC) 88 % of control

CC(=O)NCC(C)C
inactive: [5] 98 % of control | [7] 97 % of control | [8] 104 % of control

CCOC(=O)COC(=O)CN1C(=O)c2ccccc2C1=O
inactive: endpoint: mean survival time, dose: 50.0 mg/kg/injection, schedule: Q01DX001 (ip), vehicle: water 93 % of control | endpoint: mean survival time, dose: 100.0 mg/kg/injection, schedule: Q01DX001 (ip), vehicle: water 98 % of control | endpoint: mean survival time, dose: 200.0 mg/kg/injection, schedule: Q01DX001 (ip), vehicle: water 104 % of control | endpoint: mean survival time, dose: 400.0 mg/kg/injection, schedule: Q01DX001 (ip), vehicle: water 94 % of control
